Patent US9969747B2 (Constellation Pharmaceuticals, Inc., priority 2014, dated 2018)
Several values for one entry are separate records, joined by “and”; a condition that tells them apart may be missing. Equal entries are not always repeated. Where two headings read alike, the source gives them in different places.

Assays:
[1] = Oral pharmacokinetics in male beagle dogs, crossover, suspension in 0.5% MC; assay type: in vivo; details: for Inter-individual variability: 2 mg/Kg oral, crossover
Procedure: The objective was to compare the pharmacokinetic profiles of both forms in dogs using a crossover study design in which the same dogs were dosed sequentially with amorphous and monohydrate crystalline Form A with a washout period in between.

[2] = Solubility and form stability in deionized water; assay type: physicochemical
[3] = Oral pharmacokinetics in male Sprague Dawley rats, suspension in 0.5% Methylcellulose; assay type: in vivo; details: for Plasma concentration, PO1: group value
[4] = Gravimetric moisture sorption; assay type: physicochemical; details: over a relative humidity range of 5 to 95%
Text: This level of stability is rare for many pharmaceutical compounds, and particularly for hydrated forms since most are typically stable only at lower threshold values. Typically, one would expect to see stability of a monohydrate stoichiometry over a more limited range, e.g., between 30 to 70%. At relative humidity levels below 30% a compound would still retain water, but the stoichiometric ratio would be less than that of a true monohydrate. Likewise, at high relative humidity, the stoichiometric ratio of water to compound would exceed that of a monohydrate.

[5] = male beagle dog, 2 mg/Kg single oral dose, 0.25 h, 2 mg/kg
[6] = male beagle dog, 2 mg/Kg single oral dose, 0.5 h, 2 mg/kg
[7] = male beagle dog, 2 mg/Kg single oral dose, 1 h, 2 mg/kg
[8] = male beagle dog, 2 mg/Kg single oral dose, 2 h, 2 mg/kg
[9] = male beagle dog, 2 mg/Kg single oral dose, 4 h, 2 mg/kg
[10] = male beagle dog, 2 mg/Kg single oral dose, 6 h, 2 mg/kg
[11] = male beagle dog, 2 mg/Kg single oral dose, 8 h, 2 mg/kg
[12] = male beagle dog, 2 mg/Kg single oral dose, 12 h, 2 mg/kg
[13] = male beagle dog, 2 mg/Kg single oral dose, 24 h, 2 mg/kg
[14] = male beagle dog, 2 mg/Kg single oral dose, 2 mg/kg
[15] = 60 mg/Kg single oral dose, 1 h, 60 mg/kg
[16] = 60 mg/Kg single oral dose, 1 h, 60 mg/kg, in ng/mL
[17] = 60 mg/Kg single oral dose, 2 h, 60 mg/kg
[18] = 60 mg/Kg single oral dose, 2 h, 60 mg/kg, in ng/mL
[19] = 60 mg/Kg single oral dose, 4 h, 60 mg/kg
[20] = 60 mg/Kg single oral dose, 8 h, 60 mg/kg
[21] = 60 mg/Kg single oral dose, 24 h, 60 mg/kg
[22] = 60 mg/Kg single oral dose, 60 mg/kg

Structure (SMILES): Cc1noc2c1-c1ccccc1C(c1ccc(Cl)cc1)=N[C@H]2CC(N)=O [amorphous form, 2-((4S)-6-(4-chlorophenyl)-1-methyl-4H-benzo[c]isoxazolo[4,5-e]azepin-4-yl)acetamide]
- Inter-individual variability ([1]; male beagle dog): low inter-individual variability
- Plasma concentration, Mean [1, 5]: 188 ng/mL
- Plasma concentration, Mean [1, 6]: 471 ng/mL
- Plasma concentration, Mean [1, 7]: 658 ng/mL
- Plasma concentration, Mean [1, 8]: 577 ng/mL
- Plasma concentration, Mean [1, 9]: 528 ng/mL
- Plasma concentration, Mean [1, 10]: 289 ng/mL
- Plasma concentration, Mean [1, 11]: 232 ng/mL
- Plasma concentration, Mean [1, 12]: 153 ng/mL
- Plasma concentration, Mean [1, 13]: 64 ng/mL
- AUC0-inf, individual dogs [1, 14]: 5120 ng·h/mL and 7510 ng·h/mL and 6550 ng·h/mL and 4950 ng·h/mL and 7070 ng·h/mL
- AUC0-last, individual dogs [1, 14]: 4560 ng·h/mL and 6220 ng·h/mL and 5540 ng·h/mL and 4610 ng·h/mL and 6060 ng·h/mL
- Cmax, individual dogs [1, 14]: 646 ng/mL and 681 ng/mL and 672 ng/mL and 705 ng/mL and 706 ng/mL
- MRT0-last, individual dogs [1, 14]: 7.73 h (2×) and 6.48 h and 7.69 h
- T1/2, individual dogs [1, 14]: 7.86 h and 10.17 h and 9.21 h and 6.82 h and 9.17 h
- Tmax, individual dogs [1, 14]: 1.00 h (5×) and 4.00 h
- Tmax ([1]; male, beagle, dog, plasma, po, 2 mg/kg, 2 mg/Kg single oral dose): 1.5 h
- AUC(0-inf) ([1]; male, beagle, dog, plasma, po, 2 mg/kg, 2 mg/Kg single oral dose, read-out: AUC0-inf, Mean): 6220 ng·h/mL
- AUC(0-inf) ([1]; male, beagle, dog, plasma, po, 2 mg/kg, 2 mg/Kg single oral dose, read-out: AUC0-inf, individual dogs): 6110 ng·h/mL
- AUC(0-t) ([1]; male, beagle, dog, plasma, po, 2 mg/kg, 2 mg/Kg single oral dose, read-out: AUC0-last, Mean): 5390 ng·h/mL
- AUC(0-t) ([1]; male, beagle, dog, plasma, po, 2 mg/kg, 2 mg/Kg single oral dose, read-out: AUC0-last, individual dogs): 5370 ng·h/mL
- Cmax ([1]; male, beagle, dog, plasma, po, 2 mg/kg, 2 mg/Kg single oral dose, read-out: Cmax, Mean): 670 ng/mL
- Cmax ([1]; male, beagle, dog, plasma, po, 2 mg/kg, 2 mg/Kg single oral dose, read-out: Cmax, individual dogs): 609 ng/mL
- MRT inf ([1]; male, beagle, dog, plasma, po, 2 mg/kg, 2 mg/Kg single oral dose, read-out: MRT0-inf, Mean): 11.2 h
- MRT inf ([1]; male, beagle, dog, plasma, po, 2 mg/kg, 2 mg/Kg single oral dose, read-out: MRT0-inf, individual dogs): 11 h
- MRT last ([1]; male, beagle, dog, plasma, po, 2 mg/kg, 2 mg/Kg single oral dose, read-out: MRT0-last, Mean): 7.45 h
- MRT last ([1]; male, beagle, dog, plasma, po, 2 mg/kg, 2 mg/Kg single oral dose, read-out: MRT0-last, individual dogs): 7.59 h
- half-life ([1]; male, beagle, dog, plasma, po, 2 mg/kg, 2 mg/Kg single oral dose, read-out: T1/2, Mean (converted)): 515 min
- half-life ([1]; male, beagle, dog, plasma, po, 2 mg/kg, 2 mg/Kg single oral dose, read-out: T1/2, individual dogs (converted)): 499 min
- Form change upon slurry in deionized water ([2]; slurry in deionized water for 24 hr at ambient temperature): conversion to monohydrate Form A was observed
- Plasma concentration, individual rats [3, 15]: 8650 ng/mL
- Plasma concentration, Mean [3, 16]: 11700
- Plasma concentration, individual rats [3, 16]: 12700 and 13800
- Plasma concentration, individual rats [3, 17]: 8830 ng/mL
- Plasma concentration, Mean [3, 18]: 11900
- Plasma concentration, individual rats [3, 18]: 14900 and 12100
- Plasma concentration, Mean [3, 19]: 9860 ng/mL
- Plasma concentration, individual rats [3, 19]: 8410 ng/mL and 9370 ng/mL
- Plasma concentration, individual rats ([3]; 60 mg/Kg single oral dose, 4 h, 60 mg/kg, in ng/mL): 11800
- Plasma concentration, Mean [3, 20]: 6440 ng/mL
- Plasma concentration, individual rats [3, 20]: 6550 ng/mL and 6450 ng/mL and 6310 ng/mL
- Plasma concentration, Mean ([3]; 60 mg/Kg single oral dose, 24 h): BQL
- Plasma concentration, individual rats [3, 21]: BQL
- Cmax ([3]; male, Sprague Dawley, rat, plasma, po, 60 mg/kg, 60 mg/Kg single oral dose, read-out: Cmax): 11900 ng/mL
- Tmax ([3]; rat, plasma, 60 mg/Kg single oral dose, read-out: Tmax): 2 h

Structure (SMILES): Cc1noc2c1-c1ccccc1C(c1ccc(Cl)cc1)=N[C@H]2CC(N)=O [monohydrate Form A, 2-((4S)-6-(4-chlorophenyl)-1-methyl-4H-benzo[c]isoxazolo[4,5-e]azepin-4-yl)acetamide]
- Inter-individual variability ([1]; male beagle dog): low inter-individual variability
- Tmax, Mean ([1]; male beagle dog, 2 mg/Kg single oral dose): 1.50 h
- Plasma concentration, Mean [1, 5]: 100 ng/mL
- Plasma concentration, Mean [1, 6]: 330 ng/mL
- Plasma concentration, Mean [1, 7]: 522 ng/mL
- Plasma concentration, Mean [1, 8]: 512 ng/mL
- Plasma concentration, Mean [1, 9]: 435 ng/mL
- Plasma concentration, Mean [1, 10]: 278 ng/mL
- Plasma concentration, Mean [1, 11]: 214 ng/mL
- Plasma concentration, Mean [1, 12]: 151 ng/mL
- Plasma concentration, Mean [1, 13]: 67.1 ng/mL
- AUC0-inf, Mean [1, 14]: 5853 ng·h/mL
- AUC0-inf, individual dogs [1, 14]: 5350 ng·h/mL and 4540 ng·h/mL and 7490 ng·h/mL and 4980 ng·h/mL and 6220 ng·h/mL and 6540 ng·h/mL
- AUC0-last, Mean [1, 14]: 4892 ng·h/mL
- AUC0-last, individual dogs [1, 14]: 4650 ng·h/mL and 4040 ng·h/mL and 5850 ng·h/mL and 3960 ng·h/mL and 5390 ng·h/mL and 5460 ng·h/mL
- Cmax, Mean [1, 14]: 536 ng/mL
- Cmax, individual dogs [1, 14]: 542 ng/mL and 482 ng/mL and 615 ng/mL and 459 ng/mL and 549 ng/mL and 569 ng/mL
- MRT0-last, Mean [1, 14]: 7.95 h
- MRT0-last, individual dogs [1, 14]: 7.74 h and 7.34 h and 8.38 h and 8.01 h and 7.93 h and 8.32 h
- T1/2, Mean [1, 14]: 9.70 h
- T1/2, individual dogs [1, 14]: 8.60 h and 8.14 h and 11.97 h and 11.58 h and 8.31 h and 9.57 h
- Tmax, individual dogs [1, 14]: 2.00 h
- Water content (monohydrate stoichiometry) in gravimetric moisture sorption [4]: approximately 5%
- Stability of the form in deionized water ([2]; deionized water): stable
- solubility ([2]; deionized water, water, thermodynamic from solid): 4.5 µg/mL
- Plasma concentration, individual rats ([3]; 10 mg/Kg single oral dose, 299 s, 10 mg/kg): 51.3 ng/mL and 182 ng/mL and 89.2 ng/mL and 191 ng/mL and 166 ng/mL and 31.5 ng/mL
- Plasma concentration, individual rats ([3]; 10 mg/Kg single oral dose, 1.00 h, 10 mg/kg): 1940 ng/mL and 1620 ng/mL and 1510 ng/mL and 2300 ng/mL and 1790 ng/mL and 1600 ng/mL
- Plasma concentration, PO1 ([3]; 10 mg/Kg single oral dose, 1.00 h): 1790 ng/mL
- Plasma concentration, individual rats ([3]; 10 mg/Kg single oral dose, 2.00 h, 10 mg/kg): 1400 ng/mL and 1320 ng/mL and 1420 ng/mL and 1650 ng/mL and 950 ng/mL and 1000 ng/mL
- Plasma concentration, PO1 ([3]; 10 mg/Kg single oral dose, 2.00 h): 1290 ng/mL
- Plasma concentration, individual rats ([3]; 10 mg/Kg single oral dose, 4.00 h, 10 mg/kg): 611 ng/mL and 349 ng/mL and 569 ng/mL and 544 ng/mL and 166 ng/mL and 255 ng/mL
- Plasma concentration, PO1 ([3]; 10 mg/Kg single oral dose, 4.00 h): 416 ng/mL
- Plasma concentration, individual rats ([3]; 10 mg/Kg single oral dose, 8.00 h, 10 mg/kg): 56.3 ng/mL and 18.1 ng/mL and 32.4 ng/mL and 13.6 ng/mL and 2.93 ng/mL and 18.2 ng/mL
- Plasma concentration, PO1 ([3]; 10 mg/Kg single oral dose, 8.00 h): 23.6 ng/mL
- Tmax ([3]; 60 mg/Kg single oral dose): 2.0 h
- AUC0-last [3, 22]: 52800 ng·h/mL
- Cmax [3, 22]: 7197 ng/mL
- Plasma concentration, Mean ([3]; 60 mg/Kg single oral dose, 299 s): 304 ng/mL
- Plasma concentration, individual rats ([3]; 60 mg/Kg single oral dose, 299 s, 60 mg/kg): 183 ng/mL and 407 ng/mL and 512 ng/mL and 158 ng/mL and 391 ng/mL and 172 ng/mL
- Plasma concentration, Mean ([3]; 60 mg/Kg single oral dose, 0.250 h): 2150 ng/mL
- Plasma concentration, individual rats ([3]; 60 mg/Kg single oral dose, 0.250 h, 60 mg/kg): 1830 ng/mL and 2770 ng/mL and 2670 ng/mL and 2150 ng/mL and 2050 ng/mL and 1420 ng/mL
- Plasma concentration, Mean ([3]; 60 mg/Kg single oral dose, 0.500 h): 4060 ng/mL
- Plasma concentration, individual rats ([3]; 60 mg/Kg single oral dose, 0.500 h, 60 mg/kg): 3610 ng/mL and 5250 ng/mL and 3790 ng/mL and 4120 ng/mL and 4050 ng/mL and 3550 ng/mL
- Plasma concentration, Mean [3, 15]: 5530 ng/mL
- Plasma concentration, individual rats [3, 15]: 5290 ng/mL and 6110 ng/mL and 6840 ng/mL and 5440 ng/mL and 4740 ng/mL and 4770 ng/mL
- Plasma concentration, Mean [3, 17]: 7200 ng/mL
- Plasma concentration, individual rats [3, 17]: 8220 ng/mL and 7490 ng/mL and 6700 ng/mL and 8330 ng/mL and 6850 ng/mL and 5590 ng/mL
- Plasma concentration, Mean [3, 19]: 6070 ng/mL
- Plasma concentration, individual rats [3, 19]: 7740 ng/mL and 4850 ng/mL and 5160 ng/mL and 8350 ng/mL and 5690 ng/mL and 4650 ng/mL
- Plasma concentration, Mean [3, 20]: 1760 ng/mL
- Plasma concentration, individual rats [3, 20]: 3050 ng/mL and 805 ng/mL and 1220 ng/mL and 1960 ng/mL and 2320 ng/mL and 1200 ng/mL
- Plasma concentration, individual rats [3, 21]: BQL (5×) and 1.04
- AUC(0-t) ([3]; male, Sprague Dawley, rat, plasma, po, 10 mg/kg, 10 mg/Kg single oral dose): 5500 ng·h/mL
- Cmax ([3]; male, Sprague Dawley, rat, plasma, po, 10 mg/kg, 10 mg/Kg single oral dose, read-out: Cmax): 1790 ng/mL
- Inter-individual differences ([3]; oral, 10 and 60 mg/Kg): Low inter-individual differences
- Dose proportionality of Cmax and AUC ([3]; oral, dose increases from 10 to 60 mg/Kg): increase slightly more than proportionally with the dose
- Tmax ([3]; rat, plasma, 10 mg/Kg single oral dose, read-out: Tmax): 1 h
